Values quoted from earlier work in patent publication US20250131989A1, “LABORATORY CALIBRATION SYSTEM OF MATERIALS FOR USAGE IN SIMULATIONS AND FORECAST OF DISSOLUTION, DISINTEGRATION, DIFFUSION, COMPRESSION, DEFORMATION AND OTHER RELATED MATERIAL PROPERTIES AND CORRESPONDING METHOD THEREOF” (CINCAP GMBH, priority 2021, published 2025).

Assays:
[1] = example JSON database record, producer CINCAP
[2] = key 7 (solubility vs. pH data point); example JSON database record, producer CINCAP

Cn1c(=O)c2[nH]cnc2n(C)c1=O [Theophilline]
diffusivity [1]: “diffusivity”:6.16e−10,
solubility [2]: “solubility”:[{“key”:7, “value”:7.36}],
